From paper PMC6451745, “Development and dosimetry of ^203Pb/^212Pb-labelled PSMA ligands: bringing “the lead” into PSMA-targeted alpha therapy?” (European Journal of Nuclear Medicine and Molecular Imaging, 2019)
Read-outs that look alike come from different tables or passages of the source.

Columns and labels:
[1] = parameters: method as in PMID 10755652, doi:10.1039/C39890000145, doi:10.1021/ja00130a008; conditions: cited from earlier work
PSMA [2] = biological target: T1, PSMA (Homo sapiens, UniProt Q04609); experiment: Competitive binding assay on C4-2 cells; conditions: reference ^68Ga-labelled PSMA-HBED-CC dimer (PSMA-10), mean ± SD
T1 construct: host or cells: C4-2 cells (LNCaP subline)
Procedure: (§1) In vitro and in vivo experiments were performed using the PSMA-positive C4-2 cell line, a subline of the LNCaP (lymph node carcinoma of the prostate) cell line (CRL-3314; American Type Culture Collection). C4-2 cells were cultivated in RPMI-1640 (PAN Biotech) supplemented with 10% fetal calf serum and stable glutamine (PAN Biotech). Cells were grown at 37 °C and incubated in humidified air equilibrated with 5% CO2.
A MultiScreenHTS-DV filter plate was incubated at room temperature with 100 μl phosphate-buffered saline (PBS) containing 1% bovine serum albumin (BSA) per well for 30 min. After removal of the PBS/BSA solution, 1 × 10^5 C4-2 cells in Opti-MEM were added to each well. All nonlabelled compounds were dissolved in 300 μl Opti-MEM at the following concentrations: 0, 0.5, 1, 2.5, 5, 10, 25, 50, 100, 500, 1,000 and 5,000 nM. Subsequently, 3 μl of the radiolabelled compound was added, and 50 μl of this mixture was taken to obtain a solution containing 0.75 nM of the radiolabelled ligand. After 45 min incubation at 37 °C, the cells were washed twice with PBS, the radioactivity accumulated in the cells was collected, and the remaining radioactivity was measured in a gamma counter. The inhibitory potency was determined using ^68Ga-labelled PSMA-HBED-CC dimer (i.e. PSMA-10) as the reference. The 50% inhibitory concentration was calculated using a nonlinear regression algorithm (GraphPad Prism 5.01 software). The experiments were performed in quadruplicate.

[3] = Stability of ^203Pb-labelled compounds in human serum; type: in vitro ADME; conditions: 37 °C, up to 72 h, radio-HPLC
Procedure: The conjugates (1 mM in water, 80 μl, 80 nmol) were added to 400 μl sodium acetate buffer (0.4 M in water, pH 5.0), 10 μl ascorbic acid (20% in water) and 140 μl ^203Pb-chloride solution in 0.04 M HCl, with specific activity approximately 102.6 TBq/g (Lantheus Medical Imaging, North Billerica, MA, USA). The mixture was then heated at 95 °C for 5 min. Labelling was controlled by radio-HPLC. The stability of the ^203Pb-labelled compounds was evaluated in 300 μl human serum at 37 °C for up to 72 h. After precipitation of the serum proteins by addition of two parts acetonitrile, the solution was centrifuged for 5 min at 13,000 rpm (twice) and the supernatant was analysed by radio-HPLC (0–100% MeCN over 5 min, monolith column).

C4-2 tumour-bearing mice [4] = experiment: Planar scintigraphic imaging in tumour-bearing mice; type: in vivo; conditions: ^203Pb-labelled
Procedure: (§2) The in vivo experiments were carried out in accordance with the laws on animal welfare of the Federal Republic of Germany. For imaging and biodistribution studies, male BALB/c nu/nu mice (20–25 g; Charles River) bearing C4-2 tumour xenografts were used. The mice were inoculated subcutaneously in the right trunk with 5 × 10^6 C4-2 cells in 50% Matrigel in Opti-MEM (1×). For small-animal imaging the mice were anaesthetized with 2% sevoflurane, and then 0.1 nmol (1.0 MBq) of the respective ^203Pb ligand was injected into a tail vein. Serial planar scans were performed using a Gamma Imager-sct (Biospace Lab, Paris, France) with a parallel collimator (35 mm/1.8 mm/0.2 mm) after 10 min, 1 h, 4 h and 24 h. Based on the imaging results, compound CA012 was chosen for biodistribution studies. Experiments were performed in triplicate. For biodistribution, 0.025 nmol (1 MBq) of labelled compound per mouse was administered by injection into a tail vein. After 10 min, 1 h, 4 h and 24 h the mice were killed, the organs were dissected and weighed, and activity was measured using a gamma counter (Packard Cobra Auto-gamma). The organ uptakes were calculated as the percentage of the injected dose per gram of tissue (%ID/g).

PSMA [5] = biological target: T1, PSMA; parameters: method as in PMID 25883127; conditions: reference compound; cited from earlier work
[6] = cited from earlier work
[7] = parameters: method as in PMID 25883127; conditions: previously determined; cited from earlier work
C4-2 cells = experiment: Determination of specific internalization ratio; type: cell-based
Procedure: as §1
For determination of the specific internalization ratio, 24-well plates were incubated for 20 min with 0.1% poly-L-lysine in PBS at room temperature and washed once with PBS. In the next step, 1 ml RPMI containing 1 × 10^5 C4-2 cells was added to each well and incubated overnight. The conditions during the experiment for each compound were: incubation at 37 °C or 4 °C with or without receptor blocking via 2-(phosphonomethyl)pentanedioic acid (2-PMPA; Axxora) at a final concentration of 500 μM. The cells were then incubated with 250 μl of a 30 nM solution of ^203Pb-labelled compound. The plates were incubated either for 45 min in a water bath at 37 °C or on ice at 4 °C. The cells were then washed three times with 1 ml ice-cold PBS and incubated with 0.5 ml glycine (50 mM in HCl, pH 2.8) for 5 min. After an additional washing step with 1 ml ice-cold PBS, the cells were lysed with 0.5 ml 0.3 M NaOH and collected, and the radioactivity was measured with a gamma counter for 1 min. The specific cellular uptake was determined as the percentage of initially added radioactivity bound per 10^6 cells (%IA/10^6 cells) by subtraction of the respective uptake under blocking conditions. All experiments were performed in triplicate.

C4-2 tumour-bearing mice [8] = experiment: Biodistribution (organ distribution) in tumour-bearing mice; type: in vivo; conditions: for Organ distribution, Kidneys: 0.025 nmol i.v., n = 3
Procedure: as §2

[9] = ^203Pb-labelled compound 30 nM, 45 min, 2-PMPA blocking subtracted, mean ± SD n = 3

T1 sequence (Q04609 whole entry): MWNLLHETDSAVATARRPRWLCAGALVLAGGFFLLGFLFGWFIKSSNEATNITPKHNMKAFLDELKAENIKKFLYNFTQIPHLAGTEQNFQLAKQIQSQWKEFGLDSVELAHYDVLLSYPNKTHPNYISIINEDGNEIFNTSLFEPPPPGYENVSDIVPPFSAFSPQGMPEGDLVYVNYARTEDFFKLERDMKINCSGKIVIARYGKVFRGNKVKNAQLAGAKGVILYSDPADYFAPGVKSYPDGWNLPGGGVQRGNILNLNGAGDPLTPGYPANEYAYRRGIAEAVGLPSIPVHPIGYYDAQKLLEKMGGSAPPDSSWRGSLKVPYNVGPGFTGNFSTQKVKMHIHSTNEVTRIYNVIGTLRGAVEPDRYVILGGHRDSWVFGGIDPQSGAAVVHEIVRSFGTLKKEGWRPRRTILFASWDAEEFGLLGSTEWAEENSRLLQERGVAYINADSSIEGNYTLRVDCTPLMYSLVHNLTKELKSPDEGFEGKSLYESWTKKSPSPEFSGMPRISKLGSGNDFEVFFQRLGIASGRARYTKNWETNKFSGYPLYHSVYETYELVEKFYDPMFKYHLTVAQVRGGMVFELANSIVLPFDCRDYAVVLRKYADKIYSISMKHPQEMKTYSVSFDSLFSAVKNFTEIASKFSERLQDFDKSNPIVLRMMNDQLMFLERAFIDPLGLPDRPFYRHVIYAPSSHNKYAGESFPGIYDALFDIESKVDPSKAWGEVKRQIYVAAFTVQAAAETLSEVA

In the case of `NC(=O)CN1CCN(CC(N)=O)CCN(CC(N)=O)CCN(CC(N)=O)CC1` [TCMC, 1,4,7,10-tetra-(2-carbamoyl-methyl)-cyclododecane], the “pH at which stable complexes with lead(II) are formed” value [1] is listed as over 2.

In the case of `O=C(O)CN1CCN(CC(=O)O)CCN(CC(=O)O)CCN(CC(=O)O)CC1` [DOTA, 1,4,7,10-tetraazacyclododecane-1,4,7,10-tetraacetic acid], the “pH at which stable complexes with lead(II) are formed” value [1] is given as over 3.5.

With `NC(=O)CN1CCN(CC(N)=O)CCN(CC(=O)NC(Cc2ccc3ccccc3c2)C(=O)NCCCC[C@H](NC(=O)N[C@@H](CCC(=O)O)C(=O)O)C(=O)O)CCN(CC(N)=O)CC1` (stereo partly shown) [CA011] the Ki (PSMA [2]) was 28.1 ± 2.9 nM, the “stability in human serum” value [3] was “high stability” and the “tumour uptake in mice (planar scintigraphy)” value (C4-2 tumour-bearing mice [4]; 1 h after injection, Fig. 3) was “low tumour uptake”.

In the case of `O=C(O)CC[C@H](NC(=O)N[C@@H](CCCCNC(=O)[C@H](Cc1ccc2ccccc2c1)NC(=O)[C@H]1CC[C@H](CNC(=O)CN2CCN(CC(=O)O)CCN(CC(=O)O)CCN(CC(=O)O)CC2)CC1)C(=O)O)C(=O)O` [PSMA-617], the “affinity (in words)” value (PSMA [5]) is given as “single-digit affinity”, the kidney accumulation ([6]; mice, after 24 h) is given as 1% and the kidney accumulation ([6]; mouse, in vivo, 1 h) is given as 113.3 ± 24.4 %ID/g.

For `O=C([O-])CN1CCN(CC(=O)[O-])CCN(CC(=O)NCC2CCC(C(=O)N[C@@H](Cc3ccc4ccccc4c3)C(=O)NCCCC[C@H](NC(=O)N[C@@H](CCC(=O)O)C(=O)O)C(=O)O)CC2)CCN(CC(=O)[O-])CC1.[177Lu+3]` (stereo partly shown) [^177Lu-PSMA-617], the specific internalization [7] is given as 18 %ID per 10^6cells.

Work on `NC(=O)CN1CCN(CC(N)=O)CCN(CC(=O)NCC2CCC(C(=O)NC(Cc3ccc4ccccc4c3)C(=O)NCCCC[C@H](NC(=O)N[C@@H](CCC(=O)O)C(=O)O)C(=O)O)CC2)CCN(CC(N)=O)CC1` (stereo partly shown) [CA012] yielded a Ki (PSMA [2]) of 24.3 ± 3.7 nM, a specific ligand-induced internalization (C4-2 cells) of 15.6 ± 2.1 %IA/10^6 cells and a Specific cell surface (C4-2 cells; [9]) of 132.1 ± 4.3 %IA/10^6 cells. For the same compound, the “Specific lysate (specific internalization)” value (C4-2 cells; [9]) was 15.6 ± 2.1 %IA/10^6 cells, the “stability in human serum” value [3] was “high stability” and the “kidney clearance (comparison)” value (C4-2 tumour-bearing mice [4]; Fig. 4) was “faster kidney clearance than CA009”. For the same compound, the “Organ distribution, Kidneys” value (C4-2 tumour-bearing mice [8]; C4-2 tumour-bearing mice, 1 h) was 5.1 ± 2.5 % ID/g, the “Organ distribution, Kidneys” value (C4-2 tumour-bearing mice [8]; C4-2 tumour-bearing mice, 24 h) was 0.9 ± 0.1 % ID/g and the “specific uptake in tumours versus other organs” value (C4-2 tumour-bearing mice [8]; in vivo, C4-2 tumour-bearing mice) was “higher specific uptake in tumours than in other organs”. For the same compound, the kidney accumulation (C4-2 tumour-bearing mice [8]; mice, after 24 h) was 2%.
